# Measured values taken from ChEMBL document CHEMBL3797047, “Discovery of indirubin derivatives as new class of DRAK2 inhibitors from high throughput screening” (Bioorg Med Chem Lett, 2016).
# Assays:
# [1] = target: T1, Serine/threonine-protein kinase 17B (Homo sapiens, UniProt O94768); assay: Inhibition of DRAK2 (unknown origin) using MRLC3 peptide as substrate incubated for 2 hrs by ADP-Glo kinase assay
# T1 sequence (O94768 whole entry): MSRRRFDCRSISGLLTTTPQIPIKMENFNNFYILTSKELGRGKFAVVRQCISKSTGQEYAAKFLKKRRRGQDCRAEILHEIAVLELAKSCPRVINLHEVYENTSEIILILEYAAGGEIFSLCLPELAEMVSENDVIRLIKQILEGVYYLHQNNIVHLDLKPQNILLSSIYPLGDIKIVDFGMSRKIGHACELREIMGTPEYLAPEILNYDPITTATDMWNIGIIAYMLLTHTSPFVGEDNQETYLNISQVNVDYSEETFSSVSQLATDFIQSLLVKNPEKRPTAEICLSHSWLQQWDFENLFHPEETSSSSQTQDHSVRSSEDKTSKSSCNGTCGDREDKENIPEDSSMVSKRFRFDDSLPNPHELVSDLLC
# [2] = target: T2, Serine/threonine-protein kinase 17A (Homo sapiens, UniProt Q9UEE5); assay: Inhibition of DRAK1 (unknown origin)
# T2 sequence (Q9UEE5 whole entry): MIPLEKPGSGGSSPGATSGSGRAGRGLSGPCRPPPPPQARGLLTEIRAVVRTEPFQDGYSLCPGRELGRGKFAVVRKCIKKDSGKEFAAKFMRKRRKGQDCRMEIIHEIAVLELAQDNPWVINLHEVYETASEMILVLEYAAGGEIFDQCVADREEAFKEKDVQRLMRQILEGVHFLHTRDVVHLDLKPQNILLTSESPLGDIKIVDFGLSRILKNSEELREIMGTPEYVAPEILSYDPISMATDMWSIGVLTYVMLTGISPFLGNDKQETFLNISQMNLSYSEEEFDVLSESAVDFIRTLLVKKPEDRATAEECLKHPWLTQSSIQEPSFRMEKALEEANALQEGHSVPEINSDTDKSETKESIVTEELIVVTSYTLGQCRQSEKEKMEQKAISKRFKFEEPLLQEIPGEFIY
# [3] = target: Death-associated protein kinase 1 (Homo sapiens, UniProt P53355); assay: Inhibition of DAPK1 (unknown origin)
# [4] = target: Death-associated protein kinase 2 (Homo sapiens, UniProt Q9UIK4); assay: Inhibition of DAPK2 (unknown origin)
# Chain of Death-associated protein kinase 2 (Q9UIK4 whole entry): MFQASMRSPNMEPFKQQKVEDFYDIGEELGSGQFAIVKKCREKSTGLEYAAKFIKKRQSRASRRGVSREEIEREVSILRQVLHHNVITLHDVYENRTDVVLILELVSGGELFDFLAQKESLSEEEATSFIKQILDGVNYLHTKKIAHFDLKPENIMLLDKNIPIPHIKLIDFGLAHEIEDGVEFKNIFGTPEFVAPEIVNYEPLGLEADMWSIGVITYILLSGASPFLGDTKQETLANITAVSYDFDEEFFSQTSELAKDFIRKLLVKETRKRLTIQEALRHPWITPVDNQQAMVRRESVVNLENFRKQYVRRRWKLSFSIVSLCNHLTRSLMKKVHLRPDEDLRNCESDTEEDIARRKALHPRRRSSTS
# [5] = target: Death-associated protein kinase 3 (Homo sapiens, UniProt O43293); assay: Inhibition of DAPK3 (unknown origin)
# [6] = target: Hepatocyte growth factor receptor (Homo sapiens, UniProt P08581); assay: Inhibition of c-MET (unknown origin) using peptide substrate incubated for 30 mins by europium donor dye-based plate reader analysis
# [7] = target: ALK tyrosine kinase receptor (Homo sapiens, UniProt Q9UM73); assay: Inhibition of ALK (unknown origin) using peptide substrate incubated for 30 mins by europium donor dye-based plate reader analysis
# Chain of ALK tyrosine kinase receptor (Q9UM73 whole entry): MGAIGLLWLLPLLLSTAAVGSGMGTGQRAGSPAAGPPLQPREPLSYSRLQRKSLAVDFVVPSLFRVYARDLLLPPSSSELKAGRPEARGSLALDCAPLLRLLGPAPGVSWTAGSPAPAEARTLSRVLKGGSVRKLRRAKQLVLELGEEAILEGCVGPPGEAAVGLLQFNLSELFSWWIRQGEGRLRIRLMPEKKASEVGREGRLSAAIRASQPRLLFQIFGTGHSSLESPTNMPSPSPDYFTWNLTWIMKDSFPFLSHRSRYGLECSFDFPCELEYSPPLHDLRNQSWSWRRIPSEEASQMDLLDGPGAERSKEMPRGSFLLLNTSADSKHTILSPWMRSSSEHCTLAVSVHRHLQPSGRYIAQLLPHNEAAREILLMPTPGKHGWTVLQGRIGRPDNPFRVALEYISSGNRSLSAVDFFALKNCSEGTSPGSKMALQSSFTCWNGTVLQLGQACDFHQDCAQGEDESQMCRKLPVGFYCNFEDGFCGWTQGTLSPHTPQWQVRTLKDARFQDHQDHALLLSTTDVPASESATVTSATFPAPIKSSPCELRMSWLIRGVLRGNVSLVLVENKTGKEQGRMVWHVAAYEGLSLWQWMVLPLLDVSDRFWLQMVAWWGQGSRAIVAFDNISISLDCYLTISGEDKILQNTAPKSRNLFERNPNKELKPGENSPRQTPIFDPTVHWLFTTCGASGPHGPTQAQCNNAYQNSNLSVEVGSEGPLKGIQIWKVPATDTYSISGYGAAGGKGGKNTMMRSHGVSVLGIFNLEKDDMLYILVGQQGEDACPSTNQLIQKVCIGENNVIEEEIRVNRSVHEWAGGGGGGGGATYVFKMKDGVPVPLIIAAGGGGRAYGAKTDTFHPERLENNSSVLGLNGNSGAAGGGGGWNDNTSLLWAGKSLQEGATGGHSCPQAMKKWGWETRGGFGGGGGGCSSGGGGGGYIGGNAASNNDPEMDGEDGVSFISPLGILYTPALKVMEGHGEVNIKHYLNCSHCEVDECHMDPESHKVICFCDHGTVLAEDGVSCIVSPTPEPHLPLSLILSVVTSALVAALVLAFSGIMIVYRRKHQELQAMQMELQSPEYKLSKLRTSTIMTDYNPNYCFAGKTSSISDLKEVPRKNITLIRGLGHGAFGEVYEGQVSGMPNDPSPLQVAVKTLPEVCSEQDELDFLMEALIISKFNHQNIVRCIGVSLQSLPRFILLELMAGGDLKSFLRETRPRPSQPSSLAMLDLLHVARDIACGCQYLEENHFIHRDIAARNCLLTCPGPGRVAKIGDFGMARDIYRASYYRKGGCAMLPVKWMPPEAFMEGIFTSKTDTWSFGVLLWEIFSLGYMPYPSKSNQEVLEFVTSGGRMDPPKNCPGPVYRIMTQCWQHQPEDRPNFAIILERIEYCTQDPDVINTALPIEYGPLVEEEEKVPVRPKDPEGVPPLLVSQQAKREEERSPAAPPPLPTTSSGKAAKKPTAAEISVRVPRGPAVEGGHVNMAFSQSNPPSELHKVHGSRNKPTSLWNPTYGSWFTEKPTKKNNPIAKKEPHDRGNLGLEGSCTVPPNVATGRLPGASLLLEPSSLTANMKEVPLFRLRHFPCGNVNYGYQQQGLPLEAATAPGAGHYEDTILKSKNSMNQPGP
# Activated CDC42 kinase 1 = Activated CDC42 kinase 1 (Homo sapiens, UniProt Q07912); assay: Inhibition of AcK1 (unknown origin) using peptide substrate incubated for 30 mins by europium donor dye-based plate reader analysis
# [8] = target: Maternal embryonic leucine zipper kinase (Homo sapiens, UniProt Q14680); assay: Inhibition of MELK (unknown origin) using peptide substrate incubated for 30 mins by europium donor dye-based plate reader analysis
# Chain of Maternal embryonic leucine zipper kinase (Q14680 whole entry): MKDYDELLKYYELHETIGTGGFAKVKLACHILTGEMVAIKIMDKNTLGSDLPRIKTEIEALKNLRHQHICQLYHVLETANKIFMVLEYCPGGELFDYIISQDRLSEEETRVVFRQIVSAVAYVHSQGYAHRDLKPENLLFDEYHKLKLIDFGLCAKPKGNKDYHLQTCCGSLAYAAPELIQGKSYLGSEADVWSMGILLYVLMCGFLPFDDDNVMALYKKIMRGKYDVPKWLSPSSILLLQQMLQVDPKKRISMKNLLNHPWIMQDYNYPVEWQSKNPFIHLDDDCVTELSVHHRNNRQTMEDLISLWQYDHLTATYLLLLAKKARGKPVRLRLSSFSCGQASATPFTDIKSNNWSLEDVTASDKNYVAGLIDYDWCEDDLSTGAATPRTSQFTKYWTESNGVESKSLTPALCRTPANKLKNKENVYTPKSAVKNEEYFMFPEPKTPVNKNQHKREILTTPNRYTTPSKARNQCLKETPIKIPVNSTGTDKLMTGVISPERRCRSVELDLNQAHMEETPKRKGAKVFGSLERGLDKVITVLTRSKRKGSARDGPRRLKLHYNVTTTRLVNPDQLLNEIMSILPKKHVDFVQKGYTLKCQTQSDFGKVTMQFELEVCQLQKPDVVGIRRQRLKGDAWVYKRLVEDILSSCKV
# Insulin receptor = Insulin receptor (Homo sapiens, UniProt P06213); assay: Inhibition of IRK (unknown origin) using peptide substrate incubated for 30 mins by europium donor dye-based plate reader analysis
# [9] = target: T3, Epidermal growth factor receptor (Homo sapiens, UniProt P00533); assay: Inhibition of EGFR (unknown origin) using peptide substrate incubated for 30 mins by europium donor dye-based plate reader analysis
# Target sequence in this assay (P00533 whole entry): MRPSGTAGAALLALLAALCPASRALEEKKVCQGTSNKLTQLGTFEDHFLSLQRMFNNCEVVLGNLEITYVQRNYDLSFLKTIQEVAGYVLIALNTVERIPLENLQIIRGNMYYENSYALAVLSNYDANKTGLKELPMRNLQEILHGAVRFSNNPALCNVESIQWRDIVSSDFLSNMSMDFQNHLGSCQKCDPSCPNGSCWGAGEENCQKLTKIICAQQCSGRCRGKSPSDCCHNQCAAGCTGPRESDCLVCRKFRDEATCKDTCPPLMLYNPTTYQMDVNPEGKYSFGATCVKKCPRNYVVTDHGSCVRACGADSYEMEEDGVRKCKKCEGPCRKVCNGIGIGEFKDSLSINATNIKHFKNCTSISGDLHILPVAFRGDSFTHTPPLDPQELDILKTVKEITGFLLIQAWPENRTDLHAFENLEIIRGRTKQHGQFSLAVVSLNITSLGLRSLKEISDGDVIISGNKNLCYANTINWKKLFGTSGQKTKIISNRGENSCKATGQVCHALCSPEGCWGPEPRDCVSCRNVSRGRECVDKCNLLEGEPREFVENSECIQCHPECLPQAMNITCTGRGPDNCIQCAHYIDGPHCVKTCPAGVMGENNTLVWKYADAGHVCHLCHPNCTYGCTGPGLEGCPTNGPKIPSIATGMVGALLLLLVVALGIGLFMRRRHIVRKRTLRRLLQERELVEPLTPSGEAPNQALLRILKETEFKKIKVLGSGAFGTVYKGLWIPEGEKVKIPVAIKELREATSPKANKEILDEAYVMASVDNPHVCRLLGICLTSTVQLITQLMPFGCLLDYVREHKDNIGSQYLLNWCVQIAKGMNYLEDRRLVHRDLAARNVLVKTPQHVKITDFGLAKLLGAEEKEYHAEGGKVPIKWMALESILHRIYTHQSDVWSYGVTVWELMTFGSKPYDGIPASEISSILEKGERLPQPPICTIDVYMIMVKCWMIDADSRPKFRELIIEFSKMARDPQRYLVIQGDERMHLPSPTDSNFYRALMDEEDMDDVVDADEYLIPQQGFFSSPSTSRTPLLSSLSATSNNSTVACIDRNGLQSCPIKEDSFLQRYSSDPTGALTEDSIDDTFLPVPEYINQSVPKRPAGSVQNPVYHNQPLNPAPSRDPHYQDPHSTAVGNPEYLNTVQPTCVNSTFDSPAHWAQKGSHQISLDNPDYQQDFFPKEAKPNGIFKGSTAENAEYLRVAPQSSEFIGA
# [10] = target: T3, Epidermal growth factor receptor; assay: Inhibition of EGFR (746 to 750) deletion mutant (unknown origin) using peptide substrate incubated for 30 mins by europium donor dye-based plate reader analysis; assay type: protein assay
# Target sequence in this assay (P00533 25-1210 limits assumed, stated change not applied): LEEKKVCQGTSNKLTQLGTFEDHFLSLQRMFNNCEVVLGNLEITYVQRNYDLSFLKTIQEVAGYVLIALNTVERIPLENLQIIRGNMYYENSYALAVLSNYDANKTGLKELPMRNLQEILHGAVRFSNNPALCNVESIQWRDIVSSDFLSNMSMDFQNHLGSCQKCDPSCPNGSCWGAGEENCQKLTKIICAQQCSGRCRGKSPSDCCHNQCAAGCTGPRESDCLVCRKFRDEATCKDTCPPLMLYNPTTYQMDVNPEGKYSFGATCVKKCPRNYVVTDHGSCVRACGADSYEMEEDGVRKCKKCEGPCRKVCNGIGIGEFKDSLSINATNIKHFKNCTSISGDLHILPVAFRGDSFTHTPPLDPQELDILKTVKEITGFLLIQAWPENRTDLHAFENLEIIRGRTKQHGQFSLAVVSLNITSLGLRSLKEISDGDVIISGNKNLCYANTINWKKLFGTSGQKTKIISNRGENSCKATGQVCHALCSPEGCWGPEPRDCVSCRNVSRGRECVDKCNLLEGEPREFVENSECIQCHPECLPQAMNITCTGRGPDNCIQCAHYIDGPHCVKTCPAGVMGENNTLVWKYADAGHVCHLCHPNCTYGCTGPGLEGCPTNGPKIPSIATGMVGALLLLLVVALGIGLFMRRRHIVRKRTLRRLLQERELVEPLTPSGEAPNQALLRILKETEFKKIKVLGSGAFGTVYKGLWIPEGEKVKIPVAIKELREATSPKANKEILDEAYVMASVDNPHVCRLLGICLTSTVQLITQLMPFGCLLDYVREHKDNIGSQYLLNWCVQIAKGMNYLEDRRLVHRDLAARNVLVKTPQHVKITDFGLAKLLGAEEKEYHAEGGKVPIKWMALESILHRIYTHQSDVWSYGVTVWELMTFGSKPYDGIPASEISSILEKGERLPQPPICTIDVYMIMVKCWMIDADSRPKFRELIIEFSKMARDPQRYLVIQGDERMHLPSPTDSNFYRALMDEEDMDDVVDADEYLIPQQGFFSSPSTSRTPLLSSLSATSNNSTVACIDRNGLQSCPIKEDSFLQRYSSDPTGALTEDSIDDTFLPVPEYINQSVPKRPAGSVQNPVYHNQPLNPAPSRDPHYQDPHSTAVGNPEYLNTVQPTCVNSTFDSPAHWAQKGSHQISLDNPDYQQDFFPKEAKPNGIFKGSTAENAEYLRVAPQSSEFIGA
# [11] = target: T1, Serine/threonine-protein kinase 17B; assay: Competitive inhibition of DRAK2 (unknown origin) using MRLC3 peptide as substrate incubated for 2 hrs by Lineweaver-Burk plot analysis in presence of ATP
Structure (SMILES),IC50 [1] [nM],IC50 [2] [nM],other results
O=C1Nc2ccc(F)cc2/C1=C1/Nc2ccccc2C1=O,> 10000,,
O=C1Nc2ccc(F)cc2/C1=C1/Nc2ccccc2/C1=N\O,620,,
O=C1Nc2ccc(I)cc2/C1=C1/Nc2ccccc2C1=O,6200,,
Cc1ccc2c(c1)/C(=C1/Nc3ccccc3C1=O)C(=O)N2,> 10000,,
O=C1Nc2ccc(Cl)cc2/C1=C1/Nc2ccccc2C1=O,> 10000,,
Cc1cc(Cl)cc2c1NC(=O)/C2=C1\Nc2ccccc2\C1=N/O,> 10000,,
O=C1Nc2ccccc2/C1=C1/Nc2ccccc2/C1=N\O,710,,
CC(C)=CC(=O)Nc1ccc2c(c1)/C(=C1/Nc3ccccc3/C1=N\O)C(=O)N2,14,120,IC50 [3]: 450 nM; IC50 [4]: 570 nM; IC50 [5]: 450 nM
CCCCC(=O)Nc1ccc2c(c1)/C(=C1/Nc3ccccc3/C1=N\O)C(=O)N2,3,51,IC50 [3]: 1800 nM; IC50 [4]: 2300 nM; IC50 [5]: 1800 nM; IC50 [6]: > 10000 nM; IC50 [7]: > 10000 nM; IC50 (Activated CDC42 kinase 1): > 10000 nM; IC50 [8]: > 10000 nM; IC50 (Insulin receptor): > 10000 nM; IC50 [9]: > 10000 nM; IC50 [10]: > 10000 nM; Ki [11]: 0.26 nM
COc1ccc(C(=O)Nc2ccc3c(c2)/C(=C2/Nc4ccccc4/C2=N\O)C(=O)N3)cc1,330,360,
O=C1Nc2ccc(NC(=O)c3ccc(Cl)cc3)cc2/C1=C1/Nc2ccccc2/C1=N\O,3200,3000,
O=C1Nc2ccc(NC(=O)c3ccccc3)cc2/C1=C1/Nc2ccccc2/C1=N\O,200,360,
O=C1Nc2ccc(NC(=O)c3ccccc3F)cc2/C1=C1/Nc2ccccc2/C1=N\O,290,250,
O=C1Nc2ccc(NC(=O)c3cc([N+](=O)[O-])cc([N+](=O)[O-])c3)cc2/C1=C1/Nc2ccccc2/C1=N\O,77,24,
O=C1Nc2ccc(NC(=O)C3CCCCC3)cc2/C1=C1/Nc2ccccc2/C1=N\O,120,110,
O=C1Nc2ccccc2/C1=C1/Nc2cccc(Br)c2C1=O,> 10000,,
O=C1Nc2ccc(NC(=O)c3ccccc3C(F)(F)F)cc2/C1=C1/Nc2ccccc2/C1=N\O,120,320,

Structure (SMILES),IC50 [1] [nM],IC50 [2] [nM],other results
O=C(/C=C/c1ccccc1)Nc1ccc2c(c1)/C(=C1/Nc3ccccc3/C1=N\O)C(=O)N2,700,1100,
O=C1Nc2ccc(NC(=O)c3ccc(F)cc3)cc2/C1=C1/Nc2ccccc2/C1=N\O,1200,780,
Cc1ccc(C(=O)Nc2ccc3c(c2)/C(=C2/Nc4ccccc4/C2=N\O)C(=O)N3)cc1,1300,1300,
O=C(COc1cccc(Cl)c1)Nc1ccc2c(c1)/C(=C1/Nc3ccccc3/C1=N\O)C(=O)N2,950,460,
O=C1Nc2ccc(NC(=O)c3ccc([N+](=O)[O-])cc3)cc2/C1=C1/Nc2ccccc2/C1=N\O,1300,500,
O=C1Nc2ccc(NC(=O)c3cccc4ccccc34)cc2/C1=C1/Nc2ccccc2/C1=N\O,1500,700,
O=C1Nc2ccc(NC(=O)C3CC3)cc2/C1=C1/Nc2ccccc2/C1=N\O,8,21,IC50 [3]: 140 nM; IC50 [4]: 170 nM; IC50 [5]: 140 nM
CC(C)(C)CC(=O)Nc1ccc2c(c1)/C(=C1/Nc3ccccc3/C1=N\O)C(=O)N2,14,24,IC50 [3]: > 10000 nM; IC50 [4]: > 10000 nM; IC50 [5]: > 10000 nM
Cc1cc(Cl)cc2c1NC(=O)/C2=C1\Nc2ccccc2C1=O,> 10000,,
CCCC(=O)Nc1ccc2c(c1)/C(=C1/Nc3ccccc3/C1=N\O)C(=O)N2,10,12,IC50 [3]: 510 nM; IC50 [4]: 590 nM; IC50 [5]: 510 nM; IC50 [6]: > 10000 nM; IC50 [7]: > 10000 nM; IC50 (Activated CDC42 kinase 1): > 10000 nM; IC50 [8]: 1000 nM; IC50 (Insulin receptor): > 10000 nM; IC50 [9]: > 10000 nM; IC50 [10]: 8000 nM
Cc1cc(C)c2c(c1)/C(=C1/Nc3ccccc3C1=O)C(=O)N2,> 10000,,
O=C1Nc2ccc([N+](=O)[O-])cc2/C1=C1/Nc2cccc(Br)c2C1=O,> 10000,,
CC(C)(C)C(=O)Nc1ccc2c(c1)/C(=C1/Nc3ccccc3/C1=N\O)C(=O)N2,21,32,IC50 [3]: 700 nM; IC50 [4]: 830 nM; IC50 [5]: 700 nM; IC50 [6]: > 10000 nM; IC50 [7]: > 10000 nM; IC50 (Activated CDC42 kinase 1): > 10000 nM; IC50 [8]: 2800 nM; IC50 (Insulin receptor): > 10000 nM; IC50 [9]: > 10000 nM; IC50 [10]: > 10000 nM
Nc1ccc2c(c1)/C(=C1/Nc3ccccc3C1=O)C(=O)N2,1400,,
Nc1ccc2c(c1)/C(=C1/Nc3ccccc3/C1=N\O)C(=O)N2,250,,
O=C1Nc2ccccc2/C1=C1/Nc2ccccc2C1=O [INDIRUBIN],> 10000,,
